Publication PMC12909347, “Disconnect between in vitro and in vivo efficacy of the MPS1 inhibitor NTRC 0066-0 against glioblastoma” (Cellular Oncology, 2026)

Legend:
Format in all cases: in vivo
[1] = tested on: orthotopic E98 GBM tumors; test: Orthotopic E98 GBM xenograft efficacy in Abcb1a/b;Abcg2-/- mice
Method: Orthotopic GBM tumors were induced in Abcb1a/b; Abcg2^−/− mice by stereotactic injection of E98 cells expressing firefly luciferase (200,000 cells in 2 µL HBSS (Life Technologies) at an injection speed of 1 µL/min) at 2 mm lateral, 1 mm anterior and 3 mm ventral to the bregma. Tumor growth was monitored using bioluminescence imaging by injecting D-luciferin (150 mg/kg i.p.; Promega, Madison, WI) and subsequently imaging mice on an IVIS Spectrum Imaging System (PerkinElmer, Waltham, MA). Survival was monitored daily and the humane endpoint was defined as body weight loss exceeding 20%. Time-to-recurrence was defined as the number of days elapsed until the tumor regained its pre-treatment size. Tumors were treated with CT-guided radiotherapy (2–3.5 Gy per fraction) using an X-RAD 225Cx system (Precision X-Ray, North Branford, CT), temozolomide (10 mg/kg p.o. freshly prepared from powder in an aqueous solution containing 10% v/v ethanol), NTRC0066-0 (20, 10 or 5 mg/kg p.o. in an aqueous solution containing 10% v/v DMSO and 10% v/v Cremophor EL (Life Technologies)) or different combinations thereof, as described per experiment in the Figure legends.

[2] = molecular target: T1, MRP4 (Mus musculus, UniProt E9Q236); test: Brain penetration in Abcb1a/b;Abcg2;Abcc4-/- mice; conditions: 1 h after 5 mg/kg i.v.
T1 construct: Abcb1a/b; from tissue; host or cells: blood-brain barrier / brain of FVB mice (Abcb1a/b;Abcg2;Abcc4-/- versus other strains)
T1 sequence (E9Q236 1-1325): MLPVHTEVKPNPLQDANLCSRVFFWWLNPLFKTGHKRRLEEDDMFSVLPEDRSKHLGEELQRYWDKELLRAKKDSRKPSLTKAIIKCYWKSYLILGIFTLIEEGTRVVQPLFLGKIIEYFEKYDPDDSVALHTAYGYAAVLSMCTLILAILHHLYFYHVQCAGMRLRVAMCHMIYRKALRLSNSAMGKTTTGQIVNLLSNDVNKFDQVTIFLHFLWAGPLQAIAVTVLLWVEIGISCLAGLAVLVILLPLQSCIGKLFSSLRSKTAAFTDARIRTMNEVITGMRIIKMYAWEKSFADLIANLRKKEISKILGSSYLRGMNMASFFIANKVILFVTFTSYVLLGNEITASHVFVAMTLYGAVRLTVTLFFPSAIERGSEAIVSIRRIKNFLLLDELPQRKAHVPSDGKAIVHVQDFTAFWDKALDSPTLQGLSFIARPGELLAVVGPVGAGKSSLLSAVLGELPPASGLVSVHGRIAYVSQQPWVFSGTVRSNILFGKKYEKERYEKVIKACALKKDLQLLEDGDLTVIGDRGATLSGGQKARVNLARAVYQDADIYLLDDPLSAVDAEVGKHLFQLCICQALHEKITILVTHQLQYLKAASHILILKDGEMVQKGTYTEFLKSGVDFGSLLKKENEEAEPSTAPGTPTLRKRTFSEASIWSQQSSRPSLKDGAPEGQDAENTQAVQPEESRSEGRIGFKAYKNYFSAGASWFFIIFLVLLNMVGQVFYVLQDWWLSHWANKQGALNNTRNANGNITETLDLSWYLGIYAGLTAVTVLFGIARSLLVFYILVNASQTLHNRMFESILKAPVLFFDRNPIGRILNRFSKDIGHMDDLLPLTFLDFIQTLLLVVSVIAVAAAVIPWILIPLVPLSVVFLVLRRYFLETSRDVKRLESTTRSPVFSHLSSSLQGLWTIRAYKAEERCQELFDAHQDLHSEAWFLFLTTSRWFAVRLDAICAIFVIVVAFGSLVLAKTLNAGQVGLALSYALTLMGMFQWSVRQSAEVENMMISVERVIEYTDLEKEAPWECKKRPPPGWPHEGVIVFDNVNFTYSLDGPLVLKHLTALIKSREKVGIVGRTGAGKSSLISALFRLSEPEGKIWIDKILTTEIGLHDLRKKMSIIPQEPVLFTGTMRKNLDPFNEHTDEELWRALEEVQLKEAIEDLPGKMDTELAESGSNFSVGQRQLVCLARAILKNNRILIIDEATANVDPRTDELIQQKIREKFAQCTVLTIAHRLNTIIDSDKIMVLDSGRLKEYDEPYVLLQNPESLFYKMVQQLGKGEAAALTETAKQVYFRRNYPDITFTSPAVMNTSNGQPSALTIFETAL
Method: The pharmacokinetics of NTRC 0066-0 were analyzed in wild-type (WT), Abcb1a/b^−/−, Abcg2^−/−, Abcb1a/b^−/−;Abcg2^−/− and Abcb1a/b^−/−;Abcg2^−/−;Abcc4^−/− FVB mice. All knockout mice strains have been developed at the Netherlands Cancer Institute. For i.v. administration, NTRC0066-0 was formulated in DMSO: Cremophor EL: saline (1:1:8 v/v) and injected at a dose of 5 mg/kg. For i.p and oral administration, NTRC0066-0 was administered at 5, 10 or 20 mg/kg as indicated. Serial blood sampling was done by tail vein bleeding at specific time points. At terminal time points, blood was drawn by cardiac puncture followed by tissue collection. Plasma was obtained from whole blood by centrifugation (5 min, 5,000 rpm, 4 °C) and tissues were weighed and homogenized using a FastPrep®-24 (MP-Biomedicals, NY) in 1% (w/v) bovine serum albumin (Sigma-Aldrich) in water.
NTRC 0066-0 was extracted from in vitro and in vivo samples using liquid–liquid extraction with diethyl ether. Another MPS-1 inhibitor, Compound 5 (Cpd-5), was added to the samples as an internal standard. The dried organic phase was reconstituted in 30% methanol in water (v/v). Samples were measured using an LC-MS/MS system comprising an UltiMate 3000 LC Systems (Dionex, Sunnyvale, CA) and an API 4000 mass spectrometer (Sciex, Framingham, MA). […]

[3] = Tolerability of oral dosing schedules in Abcb1a/b;Abcg2-/- mice
[4] = E98 tumors, 5/10 mg/kg b.i.d.x7d monotherapy
[5] = adjuvant: 5/10 mg/kg b.i.d.x7d after RT + TMZ vs RT + TMZ alone
[6] = recurrent E98 tumors after TMZ + RT, 20 mg/kg q.2d.x11d second-line
[7] = therapy-naive E98 tumors, 20 mg/kg q.2d.x11d monotherapy

In the case of CCc1cccc(CC)c1NC(=O)c1ccn2c1CCc1cnc(Nc3ccc(N4CCN(C)CC4)cc3OC)nc1-2 [NTRC 0066-0], the Survival [1, 4] is reported as “did not observe any delay in tumor growth (Fig. 4H) or survival”, the Tumor growth [1, 4] is reported as “did not observe any delay in tumor growth” and the Survival [1, 5] is reported as “not affected”. For the same compound, the Time-to-recurrence [1, 5] was “not different between treatment groups”, the Tumor growth ([1]; adjuvant: 5/10 mg/kg b.i.d.x7d from day 3 after RT + TMZ (2 Gy + 10 mg/kg q.d.x2d) vs RT + TMZ alone) was “could not observe any effects on tumor growth” and the “Animals with tumor growth delay” value [1, 6] was 2 out of 7. The Long-term survivors [1, 6] was “one long-term survivor”, the Survival [1, 7] was “did not result in reduced tumor growth (Fig. 4A) or improved survival” and the Tumor growth [1, 7] was “did not result in reduced tumor growth”. For the same compound, the “Brain concentration compared to Abcb1a/b-/- mice” value [2] was “did not display further increased”, the Tolerability of schedule ([3]; 5 mg/kg p.o. morning + 10 mg/kg p.o. about 8 h later, 7 consecutive days) was “could safely administer” and the Tolerability of schedule ([3]; 20 mg/kg p.o. every other day for 11 days (q.2d.x11d)) was “could safely be given”.
